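96-well plates; 48 h exposure; 5 concentrations. Endpoints by linear interpolation between flanking doses. Not reached: highest tested concentration assigned. GI50: concentration for 50% inhibition of growth.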 Activity calls are given as the source filed them. Cut-off read from the data, not from the text of the source: active = GI50 up to about 1.1 µM and inactive = higher.
Tests used:
Assay in all cases: inhibition of tumour cell growth, NCI panel, 48 h
[1] = test system: 786-0
[2] = test system: CCRF-CEM
[3] = test system: EKVX
[4] = test system: HOP-62
[5] = test system: Hs-578T
[6] = test system: LOX IMVI
[7] = test system: MCF7
[8] = test system: MDA-MB-231
[9] = test system: NCI-H460
[10] = test system: OVCAR-5
[11] = test system: RPMI-8226
[12] = test system: SF-539
[13] = test system: SK-MEL-2
[14] = test system: SN12C
[15] = test system: SNB-19
[16] = test system: T47D
[17] = test system: U-251
[18] = test system: UO-31
[19] = test system: A498
[20] = test system: HCC 2998

Compound | GI50 [1] | GI50 [2] | GI50 [3] | GI50 [4] | GI50 [5] | GI50 [6] | GI50 [7] | GI50 [8] | GI50 [9] | GI50 [10] | GI50 [11] | GI50 [12] | GI50 [13] | GI50 [14] | GI50 [15] | GI50 [16] | GI50 [17] | GI50 [18] | GI50 [19] | GI50 [20]
C/C(=C\COP(=O)(O)OP(=O)(O)O)CC/C=C(\C)CNc1ccccc1 | > 50 µM (inactive) | 0.832 µM (active) | > 50 µM (inactive) | > 50 µM (inactive) | 26.4 µM (inactive) | > 50 µM (inactive) | > 50 µM (inactive) | > 50 µM (inactive) | > 50 µM (inactive) | > 50 µM (inactive) | 0.005 µM (active) | > 50 µM (inactive) | > 50 µM (inactive) | > 50 µM (inactive) | 48.1 µM (inactive) | 27.4 µM (inactive) | > 50 µM (inactive) | > 50 µM (inactive) | – | –
O=C(O)c1ccc(SSc2ccc(C(=O)O)cn2)nc1 | > 100 µM (inactive) | > 100 µM (inactive) | > 100 µM (inactive) | > 100 µM (inactive) | > 100 µM (inactive) | > 100 µM (inactive) | > 100 µM (inactive) | > 100 µM (inactive) | > 100 µM (inactive) | > 100 µM (inactive) | > 100 µM (inactive) | > 100 µM (inactive) | > 100 µM (inactive) | > 100 µM (inactive) | > 100 µM (inactive) | > 100 µM (inactive) | > 100 µM (inactive) | – | > 100 µM (inactive) | –
COc1ccc(N[S+]([O-])c2c(C)cc(C)cc2C)cc1 (stereo unspecified) | 89.5 µM (inactive) | > 100 µM (inactive) | 43.8 µM (inactive) | 72.1 µM (inactive) | 34.4 µM (inactive) | 57 µM (inactive) | 56 µM (inactive) | 80.2 µM (inactive) | 35.6 µM (inactive) | > 100 µM (inactive) | 45.3 µM (inactive) | 19.9 µM (inactive) | > 100 µM (inactive) | > 100 µM (inactive) | > 100 µM (inactive) | 34 µM (inactive) | 50 µM (inactive) | 18.2 µM (inactive) | – | 19.5 µM (inactive)
O=[As](O)(O)c1ccc2nc3cc([As](=O)(O)O)ccc3nc2c1 | > 100 µM (inactive) | – | > 100 µM (inactive) | > 100 µM (inactive) | > 100 µM (inactive) | > 100 µM (inactive) | > 100 µM (inactive) | > 100 µM (inactive) | > 100 µM (inactive) | > 100 µM (inactive) | – | – | > 100 µM (inactive) | > 100 µM (inactive) | > 100 µM (inactive) | > 100 µM (inactive) | > 100 µM (inactive) | > 100 µM (inactive) | > 100 µM (inactive) | > 100 µM (inactive)
CCOP(=O)(CC(=O)C1CC1)OCC | > 100 µM (inactive) | > 100 µM (inactive) | > 100 µM (inactive) | > 100 µM (inactive) | > 100 µM (inactive) | > 100 µM (inactive) | > 100 µM (inactive) | > 100 µM (inactive) | > 100 µM (inactive) | > 100 µM (inactive) | – | > 100 µM (inactive) | > 100 µM (inactive) | > 100 µM (inactive) | > 100 µM (inactive) | > 100 µM (inactive) | > 100 µM (inactive) | > 100 µM (inactive) | – | > 100 µM (inactive)
CCOc1ccc2c(c1)c(CC(=O)O)cn2C | > 100 µM (inactive) | > 100 µM (inactive) | > 100 µM (inactive) | > 100 µM (inactive) | > 100 µM (inactive) | > 100 µM (inactive) | > 100 µM (inactive) | > 100 µM (inactive) | > 100 µM (inactive) | – | > 100 µM (inactive) | > 100 µM (inactive) | > 100 µM (inactive) | > 100 µM (inactive) | > 100 µM (inactive) | > 100 µM (inactive) | > 100 µM (inactive) | > 100 µM (inactive) | – | > 100 µM (inactive)
CC(=O)Nc1ccc2nncnc2c1 | > 100 µM (inactive) | > 100 µM (inactive) | > 100 µM (inactive) | > 100 µM (inactive) | 77.6 µM (inactive) | > 100 µM (inactive) | > 100 µM (inactive) | > 100 µM (inactive) | > 100 µM (inactive) | > 100 µM (inactive) | > 100 µM (inactive) | > 100 µM (inactive) | > 100 µM (inactive) | > 100 µM (inactive) | > 100 µM (inactive) | > 100 µM (inactive) | > 100 µM (inactive) | > 100 µM (inactive) | > 100 µM (inactive) | –
CC(C)=NN/C(=N\c1ccc(Cl)cc1)NS(=O)(=O)c1cc(Cl)c(Oc2ccc([N+](=O)[O-])cc2Cl)c(Cl)c1 | > 100 µM (inactive) | 78.5 µM (inactive) | 29.4 µM (inactive) | > 100 µM (inactive) | 81.7 µM (inactive) | > 100 µM (inactive) | > 100 µM (inactive) | 60.1 µM (inactive) | > 100 µM (inactive) | > 100 µM (inactive) | 29.6 µM (inactive) | – | > 100 µM (inactive) | > 100 µM (inactive) | > 100 µM (inactive) | 22.2 µM (inactive) | > 100 µM (inactive) | 56.8 µM (inactive) | – | –
CN(C)/C=N/c1c2ccccc2nc2ccccc12 | 5.14 µM (inactive) | 4.21 µM (inactive) | 9.46 µM (inactive) | 8.22 µM (inactive) | 2.01 µM (inactive) | 2.44 µM (inactive) | 2.54 µM (inactive) | 5.77 µM (inactive) | – | 6.52 µM (inactive) | 1.79 µM (inactive) | 2.78 µM (inactive) | 2.69 µM (inactive) | 2.53 µM (inactive) | 4.25 µM (inactive) | 2.65 µM (inactive) | 4.17 µM (inactive) | 5.86 µM (inactive) | 8 µM (inactive) | –
NC(=O)CNC(=O)[C@@H]1C[C@@H](OCCC(=O)O)CN1C(=O)OCc1ccccc1 | > 100 µM (inactive) | > 100 µM (inactive) | > 100 µM (inactive) | > 100 µM (inactive) | > 100 µM (inactive) | > 100 µM (inactive) | > 100 µM (inactive) | > 100 µM (inactive) | > 100 µM (inactive) | > 100 µM (inactive) | > 100 µM (inactive) | – | > 100 µM (inactive) | > 100 µM (inactive) | > 100 µM (inactive) | > 100 µM (inactive) | > 100 µM (inactive) | > 100 µM (inactive) | > 100 µM (inactive) | –
NC(N)=NCc1ccc2c(c1)OCO2 | 50.1 µM (inactive) | 94 µM (inactive) | > 100 µM (inactive) | > 100 µM (inactive) | > 100 µM (inactive) | > 100 µM (inactive) | – | 95.3 µM (inactive) | > 100 µM (inactive) | > 100 µM (inactive) | 74 µM (inactive) | 42.7 µM (inactive) | > 100 µM (inactive) | – | > 100 µM (inactive) | > 100 µM (inactive) | > 100 µM (inactive) | > 100 µM (inactive) | 28.2 µM (inactive) | > 100 µM (inactive)
CNc1cc(OCc2ccccc2)c(OC)cc1C(=O)N1CCC[C@H]1CO | > 100 µM (inactive) | 81.5 µM (inactive) | > 100 µM (inactive) | > 100 µM (inactive) | > 100 µM (inactive) | > 100 µM (inactive) | > 100 µM (inactive) | > 100 µM (inactive) | – | > 100 µM (inactive) | – | > 100 µM (inactive) | > 100 µM (inactive) | > 100 µM (inactive) | > 100 µM (inactive) | > 100 µM (inactive) | > 100 µM (inactive) | 63.2 µM (inactive) | > 100 µM (inactive) | –
COC(=O)CCC1=CCC2(SC)C(=O)Nc3cccc1c32 (stereo unspecified) | > 100 µM (inactive) | > 100 µM (inactive) | 65.3 µM (inactive) | > 100 µM (inactive) | > 100 µM (inactive) | > 100 µM (inactive) | > 100 µM (inactive) | > 100 µM (inactive) | > 100 µM (inactive) | > 100 µM (inactive) | > 100 µM (inactive) | > 100 µM (inactive) | > 100 µM (inactive) | > 100 µM (inactive) | > 100 µM (inactive) | 4.7 µM (inactive) | > 100 µM (inactive) | > 100 µM (inactive) | – | > 100 µM (inactive)
COc1cccc(C2c3cc4c(cc3OC(C)(N3CCCC3)C2C)OCO4)c1OC (stereo unspecified) | 14.5 µM (inactive) | 4.85 µM (inactive) | 14.9 µM (inactive) | 14.3 µM (inactive) | 10.7 µM (inactive) | 11.7 µM (inactive) | 11.9 µM (inactive) | 19.5 µM (inactive) | 11.7 µM (inactive) | 16 µM (inactive) | 8.97 µM (inactive) | – | 7.74 µM (inactive) | 6.52 µM (inactive) | 22.8 µM (inactive) | 4.24 µM (inactive) | 5.25 µM (inactive) | 6.41 µM (inactive) | – | 19.1 µM (inactive)
CCN(CC)c1ccc2cc(-c3nc(O)c4ccccc4n3)c(=N)oc2c1 | > 100 µM (inactive) | > 100 µM (inactive) | > 100 µM (inactive) | > 100 µM (inactive) | > 100 µM (inactive) | > 100 µM (inactive) | > 100 µM (inactive) | > 100 µM (inactive) | > 100 µM (inactive) | > 100 µM (inactive) | > 100 µM (inactive) | > 100 µM (inactive) | > 100 µM (inactive) | > 100 µM (inactive) | > 100 µM (inactive) | > 100 µM (inactive) | > 100 µM (inactive) | > 100 µM (inactive) | – | > 100 µM (inactive)

Source: ChEMBL document CHEMBL1201862, “PubChem BioAssay data set” (2004)
